Entries after “also recorded” stand apart in the source; their conditions may differ.
target: T1, human TLR7 (Homo sapiens, UniProt Q9NYK1); assay: NF-κB induction, human TLR7-specific reporter gene assay; assay type: cell-based; conditions: not given
T1 sequence (Q9NYK1 27-1049): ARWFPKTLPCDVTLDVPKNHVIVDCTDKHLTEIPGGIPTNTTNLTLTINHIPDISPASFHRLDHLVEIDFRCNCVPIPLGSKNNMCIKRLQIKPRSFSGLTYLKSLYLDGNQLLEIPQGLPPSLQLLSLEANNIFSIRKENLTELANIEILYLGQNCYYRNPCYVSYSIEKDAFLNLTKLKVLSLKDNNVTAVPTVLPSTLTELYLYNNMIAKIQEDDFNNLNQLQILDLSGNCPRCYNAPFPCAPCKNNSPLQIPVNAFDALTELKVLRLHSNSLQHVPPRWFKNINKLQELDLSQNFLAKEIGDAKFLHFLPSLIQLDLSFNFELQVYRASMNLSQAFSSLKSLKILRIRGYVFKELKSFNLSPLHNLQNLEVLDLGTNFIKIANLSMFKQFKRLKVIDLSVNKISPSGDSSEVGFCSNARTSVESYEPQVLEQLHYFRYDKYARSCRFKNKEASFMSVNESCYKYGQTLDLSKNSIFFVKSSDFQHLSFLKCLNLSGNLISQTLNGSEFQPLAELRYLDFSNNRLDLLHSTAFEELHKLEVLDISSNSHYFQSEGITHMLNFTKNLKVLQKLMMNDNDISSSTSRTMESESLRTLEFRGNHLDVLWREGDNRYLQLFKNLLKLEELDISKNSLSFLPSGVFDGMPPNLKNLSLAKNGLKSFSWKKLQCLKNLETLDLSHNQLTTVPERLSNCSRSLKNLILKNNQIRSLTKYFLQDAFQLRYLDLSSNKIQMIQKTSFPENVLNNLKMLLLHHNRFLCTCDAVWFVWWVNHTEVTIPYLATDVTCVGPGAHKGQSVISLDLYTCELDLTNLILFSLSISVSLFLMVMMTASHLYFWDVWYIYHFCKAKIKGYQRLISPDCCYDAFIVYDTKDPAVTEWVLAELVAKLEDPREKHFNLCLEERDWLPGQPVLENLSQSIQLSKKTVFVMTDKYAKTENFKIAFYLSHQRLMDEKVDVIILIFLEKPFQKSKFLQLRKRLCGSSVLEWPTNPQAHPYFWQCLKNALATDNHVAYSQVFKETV

EC50 | Structure (SMILES)
~2 µM | CC(C)Cn1cnc2c(N)nc3ccccc3c21 [Compound 1, Imiquimod, reference compound]

same assay, conditions: fold greater activity than 2

TLR7 activity relative to compound 2 | Structure (SMILES)
twenty-fold greater | CCCCCc1nc2c(N)nc3ccccc3c2n1Cc1ccccc1 [Compound 32, 1-Benzyl-2-pentyl-1H-imidazo[4,5-c]quinolin-4-amine]

same assay, conditions: human TLR7 reporter gene assay

TLR7-agonistic activity, result in words | Structure (SMILES)
completely inactive | CCN(CCOCCOCCN)Cc1nc2c(N)nc3ccccc3c2n1CC(C)(C)O [Compound 11, 1-(4-Amino-2-(((2-(2-(2-aminoethoxy)ethoxy)ethyl) (ethyl)amino)methyl)-1H-imidazo[4,5-c]quinolin-1-yl)-2-methylpropan-2-ol]
bereft of activity | CCCCCCCCCCCCCCCC(=O)N(CC)Cc1nc2c(N)nc3ccccc3c2n1CC(C)(C)O [Compound 5, N-((4-Amino-1-(2-hydroxy-2-methylpropyl)-1H-imidazo[4,5-c]quinolin-2-yl)methyl)-N-ethylpalmitamide]
substantially weaker | CCCCc1nc2c(NN)nc3ccccc3c2n1Cc1ccccc1 [Compound 49, 1-Benzyl-2-butyl-4-hydrazinyl-1H-imidazo[4,5-c]quinoline]
completely inactive | CCCCCc1nc2c(O)nc3ccccc3c2n1Cc1ccccc1 [Compound 46, 1-Benzyl-2-pentyl-1H-imidazo[4,5-c]quinolin-4-ol]
inactive | CCN(CCCNC(=S)NCCCNCCCCNCCCN)Cc1nc2c(N)nc3ccccc3c2n1CC(C)(C)O [Compound 16, 1-(3-(((4-amino-1-(2-hydroxy-2-methylpropyl)-1H-imidazo[4,5-c]quinolin-2-yl)methyl)(ethyl)amino)propyl)-3-(3-(4-(3-aminopropylamino)butylamino)propyl) thiourea]
very active | CCNCc1nc2c(N)nc3ccccc3c2n1Cc1ccccc1 [Compound 52, 1-Benzyl-2-((ethylamino)methyl)-1H-imidazo[4,5-c]quinolin-4-amine]
completely inactive | CCCNC(=O)n1c(=O)n(Cc2ccccc2)c2c3ccccc3ncc21 [Compound 57, 1-Benzyl-2-oxo-N-propyl-1H-imidazo[4,5-c]quinoline-3(2H)-carboxamide]
completely inactive | CCCCCc1nc2c(Cl)nc3ccccc3c2n1Cc1ccccc1 [Compound 44, 1-Benzyl-4-chloro-2-pentyl-1H-imidazo[4,5-c]quinoline]
substantially weaker | CCCCc1nc2c(NO)nc3ccccc3c2n1Cc1ccccc1 [Compound 48, N-(1-Benzyl-2-butyl-1H-imidazo[4,5-c]quinolin-4-yl)hydroxylamine]
bereft of activity | CC/N=C(/NCCCN(C)C)N(CC)Cc1nc2c(N)nc3ccccc3c2n1CC(C)(C)O [Compound 6, 1-((4-Amino-1-(2-hydroxy-2-methylpropyl)-1H-imidazo[4,5-c]quinolin-2-yl)methyl)-3-(3-(dimethylamino)propyl)-1,2-diethylguanidine]
completely inactive | Clc1nc2ccccc2c2c1nnn2Cc1ccccc1 [Compound 55, 1-Benzyl-4-chloro-1H-[1,2,3]triazolo[4,5-c]quinoline]
partial activity | CCN(CC)Cc1nc2c(N)nc3ccccc3c2n1CC(C)(C)O [Compound 3, 1-(4-Amino-2-((diethylamino)methyl)-1H-imidazo[4,5-c]quinolin-1-yl)-2-methylpropan-2-ol]
completely inactive | CCCCCc1nc2c(-c3ccccc3)nc3ccccc3c2n1Cc1ccccc1 [Compound 47, 1-Benzyl-2-pentyl-4-phenyl-1H-imidazo[4,5-c]quinoline]
decrease in potency | C#CCCc1nc2c(N)nc3ccccc3c2n1Cc1ccccc1 [Compound 43, 1-Benzyl-2-(but-3-ynyl)-1H-imidazo[4,5-c]quinolin-4-amine]
decrease in potency | C=CCCc1nc2c(N)nc3ccccc3c2n1Cc1ccccc1 [Compound 38, 1-Benzyl-2-(but-3-enyl)-1H-imidazo[4,5-c]quinolin-4-amine]
bereft of activity | CCN(Cc1nc2c(N)nc3ccccc3c2n1CC(C)(C)O)C(C)=O [Compound 4, N-((4-Amino-1-(2-hydroxy-2-methylpropyl)-1H-imidazo[4,5-c]quinolin-2-yl)methyl)-N-ethylacetamide]
completely inactive | Nc1nc2ccccc2c2c1nnn2Cc1ccccc1 [Compound 56, 1-Benzyl-1H-[1,2,3]triazolo[4,5-c]quinolin-4-amine]
completely inactive | CCCCc1nc2cnc3ccccc3c2n1Cc1ccccc1 [Compound 50, 1-Benzyl-2-butyl-1H-imidazo[4,5-c]quinoline]

Structure (SMILES) | TLR7-agonistic activity, result in words
CCCCCCCCCCCNCc1nc2c(N)nc3ccccc3c2n1CC(C)(C)O [Compound 22, 1-(4-Amino-2-((undecylamino)methyl)-1H-imidazo[4,5-c]quinolin-1-yl)-2-methylpropan-2-ol] | complete loss of activity; also recorded: completely inactive
